Assay results: US10966426B2, “Herbicidal compositions comprising phenylpyrimidines” (BASF SE, priority 2016, dated 2021)
Read-outs that look alike come from different tables or passages of the source.

How the values were obtained:
Format in all cases: in vivo
[1] = tested on: Alopecurus myosuroides; experiment: greenhouse post-emergence treatment, ALOMY; details: Alopecurus myosuroides, 480 h, 20 DAT, ALOMY
Procedure, shortened: (§1)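 Scoring used a 0 to 100 scale, with 100 denoting no emergence or full destruction of at least the above-ground parts, recorded within a 2 to 4 week test period. Test plants grew in loamy sand containing about 3.0% humus at 10-25° C. or 20-35° C., after direct sowing or transplanting, and received water-based treatments post-emergence.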

[2] = tested on: Bromus sterilis; experiment: greenhouse post-emergence treatment, BROST; details: Bromus sterilis, 480 h, 20 DAT, BROST
Procedure, shortened: as §1

[3] = tested on: Matricaria chamomilla; experiment: greenhouse post-emergence treatment, MATCH; details: Matricaria chamomilla, 480 h, 70 gai/ha (SL 480 g/l), 20 DAT, MATCH, Table X7, read-out: % activity, solo application
Procedure, shortened: (§2)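 Seeds sown per species in pots of loamy sand; seedlings either grown in place or transplanted days before treatment. Post-emergence spray of water-based liquor at 3–15 cm height. Injury rated 0–100 over 2 to 4 weeks.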

[4] = tested on: Galium aparine; experiment: greenhouse post-emergence treatment, GALAP; details: Galium aparine, 480 h, 20 DAT, GALAP, dicamba SL 480 g/l solo 70 gai/ha
Procedure, shortened: as §2

[5] = tested on: Setaria viridis; experiment: greenhouse post-emergence treatment, SETVI; details: Setaria viridis, 480 h, 35 gai/ha (SL 480 g/l), 20 DAT, SETVI, Table X7, read-out: % activity, solo application
Procedure, shortened: as §1

[6] = tested on: Papaver rhoeas; experiment: greenhouse post-emergence treatment, PAPRH; details: Papaver rhoeas, 480 h, 20 DAT, PAPRH
Procedure, shortened: as §2

[7] = tested on: Lolium multiflorum; experiment: greenhouse post-emergence treatment, LOLMU; details: Lolium multiflorum, 480 h, 20 DAT, LOLMU
Procedure, shortened: as §1

[8] = tested on: Digitaria sanguinalis; experiment: greenhouse post-emergence treatment, DIGSA; details: Digitaria sanguinalis, 480 h, 20 DAT, DIGSA
Procedure, shortened: as §1

[9] = tested on: Echinocloa crus-galli; experiment: greenhouse post-emergence treatment, ECHCG; details: Echinochloa crus-galli, 480 h, 20 DAT, ECHCG, dicamba SL 480 g/l solo 35 gai/ha
Procedure, shortened: as §2

[10] = tested on: Brachiaria decumbens; experiment: greenhouse post-emergence treatment, BRADC; details: Urochloa decumbens, 480 h, 20 DAT, BRADC
Procedure, shortened: (§3)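 Visual herbicidal effect (0–100) recorded over a 2 to 4 week test period after foliar treatment at plant heights of 3 to 15 cm. Expected combination effects derived by the Colby formula from single-component effects X and Y.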

[11] = tested on: Poa annua; experiment: greenhouse post-emergence treatment, POAAN; details: Poa annua, 480 h, 20 DAT, POAAN
Procedure, shortened: as §3

[12] = tested on: Stellaria media; experiment: greenhouse post-emergence treatment, STEME; details: Stellaria media, 480 h, 20 DAT, STEME, dicamba SL 480 g/l solo 35 gai/ha
Procedure, shortened: as §3

[13] = tested on: Helianthus annuus; experiment: greenhouse post-emergence treatment, HELAN; details: Helianthus annuus, 480 h, 20 DAT, HELAN, dicamba SL 480 g/l solo 70 gai/ha
Description: The culture containers used were plastic pots containing loamy sand with approximately 3.0% of humus as substrate. The seeds of the test plants were sown separately for each species.
For the post-emergence treatment, the test plants were grown to a plant height of from 3 to 15 cm, depending on the plant habit, and only then treated with the active compounds which had been suspended or emulsified in water. To this end, the test plants were either sown directly, and grown in the same containers, or they were first grown separately as seedlings and transplanted into the test containers a few days prior to treatment.
Depending on the species, the plants were kept at 10-25° C. and 20-35° C., respectively.
The test period extended over 2 to 4 weeks. During this time, the plants were tended and their response to the individual treatments was evaluated.
Evaluation was carried out using a scale from 0 to 100. 100 means no emergence of the plants, or complete destruction of at least the above-ground parts, and 0 means no damage or normal course of growth. A good herbicidal activity is given at values of at least 70, and very good herbicidal activity is given at values of at least 85.
The respective stated components A and B, and if appropriate, C were formulated as a 10% by weight strength emulsion concentrate and, with addition of the amount of solvent system, introduced into the spray liquor used for applying the active compound. In the examples, the solvent used was water.
In the examples below, using the method of S. R. Colby (1967) “Calculating synergistic and antagonistic responses of herbicide combinations”, Weeds 15, p. 22ff., the value E, which is expected if the activity of the individual active compounds is only additive, was calculated. E=X+Y−(X·Y/100) where X=effect in percent using herbicide A at an application rate a; • Y=effect in percent using herbicide B at application rate b; • E=expected effect (in %) of herbicide A+herbicide B at application rates a+b.

[14] = 35 gai/ha (SL 480 g/l), Table X7, read-out: % activity, solo application
[15] = dicamba SL 480 g/l solo 17.5 gai/ha
[16] = dicamba SL 480 g/l solo 35 gai/ha
[17] = dicamba SL 480 g/l solo 70 gai/ha
[18] = dicamba SL 480 g/l solo 140 gai/ha

COc1c(Cl)ccc(Cl)c1C(=O)O [Dicamba, dicamba]
0%: inhibition at 140 g/ha ([1]; dicamba SL 480 g/l solo 140 gai/ha, read-out: % activity) | inhibition at 35 g/ha [1, 14] | inhibition at 70 g/ha ([1]; 70 gai/ha (SL 480 g/l), Table X7, read-out: % activity, solo application) | inhibition at 140 g/ha ([1]; 140 gai/ha (SL 480 g/l), Table X7, read-out: % activity, solo application) | inhibition at 17.5 g/ha [2, 15] | inhibition at 35 g/ha [2, 16] | inhibition at 70 g/ha [2, 17] | inhibition at 140 g/ha [2, 18] | inhibition at 70 g/ha [3] | inhibition at 35 g/ha [5] | inhibition at 17.5 g/ha [7, 15] | inhibition at 35 g/ha [7, 16] | inhibition at 17.5 g/ha [8, 15] | inhibition at 35 g/ha [8, 16] | inhibition at 70 g/ha [8, 17] | inhibition at 35 g/ha [9] | inhibition at 17.5 g/ha [10, 15] | inhibition at 35 g/ha ([10]; dicamba SL 480 g/l solo 35 gai/ha, read-out: % activity) | inhibition at 35 g/ha [10, 14] | inhibition at 17.5 g/ha [11, 15] | inhibition at 35 g/ha [11, 16] | inhibition at 70 g/ha [11, 17] | inhibition at 140 g/ha [11, 18]
80%: inhibition at 35 g/ha [12]
30%: inhibition at 35 g/ha [6, 16] | inhibition at 140 g/ha [8, 18] | inhibition at 140 g/ha [10, 18]
85%: inhibition at 70 g/ha [4] | inhibition at 70 g/ha [13]
20%: inhibition at 17.5 g/ha [6, 15]
5%: inhibition at 280 g/ha ([1]; 280 gai/ha (SL 480 g/l), Table X7, read-out: % activity, solo application)
